Literature values in patent US20230061908A1 (priority 2020, published 2023).

Conditions: wide distribution to most tissues

CCC(CC)COC(=O)[C@H](C)N[P@](=O)(OC[C@H]1O[C@@](C#N)(c2ccc3c(N)ncnn23)[C@H](O)[C@@H]1O)Oc1ccccc1 [Remdesivir]
crossing of the BBB (blood-brain barrier): does not cross the BBB
